In assay [1] the target is T1, CCR4 (Homo sapiens, UniProt P51679).
T1 construct: CEM Cells Endogenous Express CCR4; endogenous in cells; host or cells: CEM cells
T1 sequence (P51679 1-360): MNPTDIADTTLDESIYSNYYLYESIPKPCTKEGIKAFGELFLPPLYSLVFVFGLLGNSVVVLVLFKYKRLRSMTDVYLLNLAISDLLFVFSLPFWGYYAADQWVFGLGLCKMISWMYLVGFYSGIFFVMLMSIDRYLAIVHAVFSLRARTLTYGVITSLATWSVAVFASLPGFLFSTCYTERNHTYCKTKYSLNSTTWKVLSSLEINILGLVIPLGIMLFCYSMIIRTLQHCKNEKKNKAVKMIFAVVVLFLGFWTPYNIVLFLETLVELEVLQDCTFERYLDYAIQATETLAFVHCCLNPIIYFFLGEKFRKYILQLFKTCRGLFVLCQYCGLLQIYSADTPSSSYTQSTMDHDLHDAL
Briefly: CEM cell chemotaxis (migration) assay to CCL22 (MDC) in 100% Fetal Bovine Serum (FBS). The following applies: CEM cells in 100% FBS with 1% HEPEs; recombinant human CCL22 0.1 nM; 37° C. 60 minutes. In kind it is cell-based. The procedure, abridged: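 Endogenously CCR4-expressing CEM cells in 100% FBS with 1% HEPES were preincubated with serially diluted compound (top final 10 μM) and allowed to migrate through 5 μm polycarbonate membranes toward 0.1 nM human CCL22 (EC50) for 60 min at 37 °C. Migrated cells were quantified by CyQUANT fluorescence.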

Assay [2] concerns the target T1, CCR4. Briefly: CEM cell chemotaxis (migration) assay to CCL22 (MDC) in HBSS buffer with 0.1% BSA. In kind it is cell-based. The settings on record: CEM cells in HBSS with 0.1% BSA; recombinant human CCL22 0.1 nM; 37° C. 60 minutes. An excerpt: CEM Cells Endogenous Express CCR4
A chemotaxis assay can be used to determine the efficacy of potential receptor antagonists at blocking the migration mediated through chemokine receptors, such as CCR4. This assay is routinely performed using the ChemoTX® microchamber system with a 5 μm pore-sized polycarbonate membrane.
HBSS: CEM Cells are collected by centrifugation at 400×g at room temperature, then suspended at 5 million/ml in Hanks' Balanced Salt Solution (HBSS) buffer with 0.1% BSA. The compound being tested is serially diluted from a maximum final concentration of 10 μM (or an equivalent volume of its solvent (DMSO)) and is then added to the cell/buffer mixture. Separately, recombinant human CCL22 (MDC) at its EC50 concentration (0.1 nM) is placed in the lower wells of the ChemoTX® plate. The 5-μm (pore size) polycarbonate membrane was placed onto the plate, and 20 μL of the cell/compound mixture is transferred onto each well of the membrane. The plates are incubated at 37° C. for 60 minutes, after which the polycarbonate membranes are removed and 5 μl of the DNA-intercalating dye CyQUANT (Invitrogen, Carlsbad, CA) is added to the lower wells. The amount of fluorescence, corresponding to the number of migrated cells, is measured using a Spectrafluor Plus plate reader (TECAN, San Jose, CA).

In patent US20230382894A1, “CCR4 ANTAGONISTS” (CHEMOCENTRYX, INC., priority 2022, published 2023) one finds IC50 data, which are given here for 40 compounds.

As usually defined, the IC50 is the point on the concentration scale where inhibition reaches its midpoint. `C[C@@H](Nc1nc(N2CCN(C(=O)N(C)C3CCNC3)CC2)ncc1Cl)c1ccc(Cl)cc1Cl` (some centres unmarked) [Example 1.059]: the half-maximal inhibitory concentration (IC50) at CCR4 [1] and on CCR4 [2] was < 100 nM in each case.

With `C[C@@H](Nc1nc(N2CCN(C(=O)[C@H]3CCC(=O)N3)C[C@@H]2C)ncc1Cl)c1ccc(Cl)cc1Cl` [Example 1.081], the IC50 on CCR4 [1] and on CCR4 [2] was < 100 nM throughout.

Regarding `C[C@@H](Nc1nc(N2CCC(C3CNC3)CC2)ncc1Cl)c1ccc(Cl)cc1Cl` [Example 1.021], the half-maximal inhibitory concentration (IC50) at CCR4 [1] and at CCR4 [2] was < 100 nM each time.

For the compound `C[C@@H](Nc1nc(N2CCN(C(=O)C[C@H]3CCCN3)CC2)ncc1Cl)c1ccc(Cl)cc1Cl` [Example 1.032], the half-inhibitory concentration (IC50) on CCR4 [1] and at CCR4 [2] was < 100 nM in each case.

As to `C[C@@H](Nc1nc(N2CCN(C(=O)[C@H]3CCCN3)CC2)nc(N)c1Cl)c1ccc(Cl)cc1Cl` [Example 1.080], the IC50 on CCR4 [1] and on CCR4 [2] was < 100 nM each time.

In the case of `C[C@@H](Nc1nc(N2CC[C@H](NC(=O)[C@H]3CCCN3)[C@@H](O)C2)ncc1Cl)c1ccc(Cl)cc1Cl` [Example 1.012], the IC50 on CCR4 [1] and at CCR4 [2] was < 100 nM throughout.

Regarding `C[C@@H](Nc1nc(N2CCC(NC(=O)C3CCOCC3)CC2)ncc1Cl)c1ccc(Cl)cc1Cl` [Example 1.130], the IC50 at CCR4 [1] was > 1000 nM; on CCR4 [2], 100 to 1000 nM.

Consider `C[C@@H](Nc1nc(N2CCC(C3CCCN(CCC(=O)O)C3)CC2)ncc1Cl)c1ccc(Cl)cc1Cl` (some centres unmarked) [Example 1.035], for which the IC50 on CCR4 [1] and at CCR4 [2] was < 100 nM in each case.

Turning to `CC(C)N(C(=O)C1CCNC1)C1CCN(c2ncc(Cl)c(N[C@H](C)c3ccc(Cl)cc3Cl)n2)CC1` (some centres unmarked) [Example 1.062], the IC50 on CCR4 [1] and on CCR4 [2] was > 1000 nM in each case.

In the case of `C[C@@H](Nc1nc(N2CCC(N(CCO)C(=O)[C@H]3CCCN3)CC2)ncc1Cl)c1ccc(Cl)cc1Cl` [Example 1.064], the IC50 on CCR4 [1] and at CCR4 [2] was < 100 nM each time.

`C[C@@H](Nc1nc(N2CCN(C(=O)[C@H]3CCCN3CCC(=O)O)CC2)ncc1Cl)c1ccc(Cl)cc1Cl` [Example 1.048]: the IC50 on CCR4 [1] and on CCR4 [2] was < 100 nM each time.

For `C[C@@H](Nc1nc(N2CCN(C3CCCN(CCC(=O)O)C3)CC2)ncc1Cl)c1ccc(Cl)cc1Cl` (some centres unmarked) [Example 1.054], the IC50 on CCR4 [1] and on CCR4 [2] was < 100 nM throughout.

`C[C@@H](Nc1nc(N2CCN(C(=O)[C@H]3CCCN3C)CC2)ncc1Cl)c1ccc(Cl)cc1Cl` [Example 1.024]: the IC50 on CCR4 [1] and on CCR4 [2] was < 100 nM each time.

With `C[C@@H](Nc1nc(N2CCC(NC(=O)[C@H]3CCNC3)CC2)ncc1Cl)c1ccc(Cl)cc1Cl` [Example 1.061], the IC50 on CCR4 [1] and on CCR4 [2] was < 100 nM each time.

Regarding `C[C@@H](Nc1nc(N2CC[C@@H](NC(=O)[C@H]3CCCN3)[C@@H](O)C2)ncc1Cl)c1ccc(Cl)cc1Cl` [Example 1.028], the IC50 on CCR4 [1] and on CCR4 [2] was < 100 nM throughout.

For `CC(Nc1nc(N2CCN(C(=O)[C@H]3CCC(=O)N3)CC2)ncc1Cl)c1cc(F)c(Cl)cc1Cl` (some centres unmarked) [Example 1.082], the half-inhibitory concentration (IC50) at CCR4 [1] and at CCR4 [2] was < 100 nM each time.

In the case of `C[C@@H](Nc1nc(N2CCN(C(=O)C3CCN(C)C3)CC2)ncc1Cl)c1ccc(Cl)cc1Cl` (some centres unmarked) [Example 1.022], the IC50 at CCR4 [1] and on CCR4 [2] was < 100 nM each time.

Turning to `C[C@@H](Nc1nc(N2CCN(C(=O)CCN(C)C)CC2)ncc1Cl)c1ccc(Cl)cc1Cl` [Example 1.010], the IC50 on CCR4 [1] and at CCR4 [2] was < 100 nM each time.

As to `C[C@@H](Nc1nc(N2CCN(C3CN[C@H](C(=O)O)C3)CC2)ncc1Cl)c1ccc(Cl)cc1Cl` (some centres unmarked) [Example 1.153], the IC50 on CCR4 [1] and at CCR4 [2] was > 1000 nM in each case.

For the compound `C[C@@H](Nc1nc(C2=CCN([C@H]3CCCN(CCO)C3)CC2)ncc1Cl)c1ccc(Cl)cc1Cl` [Example 1.058], the half-maximal inhibitory concentration (IC50) at CCR4 [1] and at CCR4 [2] was < 100 nM in each case.

With `C[C@@H](Nc1nc(N2CCN(C(=O)[C@H]3CCCN3)[C@@H](C)C2)ncc1Cl)c1ccc(Cl)cc1Cl` [Example 1.011], the IC50 on CCR4 [1] and at CCR4 [2] was < 100 nM in each case.

As for `C[C@@H](Nc1nc(N2CCN(C(=O)[C@H]3CCCN3)CC2)ncc1Cl)c1ccc(Cl)cc1F` [Example 1.004], the IC50 on CCR4 [1] and at CCR4 [2] was < 100 nM in each case.

Take `C[C@@H](Nc1nc(C2CCN(C3CCCN(CCC(=O)O)C3)CC2)ncc1Cl)c1ccc(Cl)cc1Cl` (some centres unmarked) [Example 1.077]: the half-maximal inhibitory concentration (IC50) on CCR4 [1] and at CCR4 [2] was < 100 nM throughout.

Regarding `C[C@@H](Nc1nc(C2=CCN([C@H]3CCCN(CCC(=O)O)C3)CC2)ncc1Cl)c1ccc(Cl)cc1Cl` [Example 1.057], the IC50 at CCR4 [1] and at CCR4 [2] was < 100 nM each time.

For the compound `C[C@@H](Nc1nc(N2CCC(NC(=O)[C@H]3CC(F)(F)CN3)CC2)ncc1Cl)c1ccc(Cl)cc1Cl` [Example 1.136], the concentration for half-maximal inhibition (IC50) at CCR4 [1] and on CCR4 [2] was > 1000 nM throughout.

Turning to `C[C@@H](Nc1nc(N2CCN(C(=O)[C@H]3CCCN3)[C@H](C(=O)O)C2)ncc1Cl)c1ccc(Cl)cc1Cl` [Example 1.151], the IC50 at CCR4 [1] and on CCR4 [2] was < 100 nM in each case.

Take `C[C@@H](Nc1nc(N2CC[C@@H](NC(=O)[C@H]3CCCN3)[C@H](O)C2)ncc1Cl)c1ccc(Cl)cc1Cl` [Example 1.013]: the half-inhibitory concentration (IC50) at CCR4 [1] and at CCR4 [2] was < 100 nM each time.

On to `C[C@@H](Nc1nc(N2CCN(C(=O)[C@@H]3CCNC3)CC2)ncc1Cl)c1ccc(Cl)cc1Cl` [Example 1.070], for which the IC50 on CCR4 [1] and at CCR4 [2] was < 100 nM throughout.

Turning to `Cc1nc(N2CCN(C(=O)[C@H]3CCCN3)[C@H](CO)C2)nc(N[C@H](C)c2ccc(Cl)cc2Cl)c1Cl` [Example 1.043], the IC50 on CCR4 [1] and at CCR4 [2] was < 100 nM each time.

For `C[C@@H](Nc1nc(N2CCC(N3CC(=O)NC3=O)CC2)ncc1Cl)c1ccc(Cl)cc1Cl` [Example 1.132], the IC50 at CCR4 [1] and on CCR4 [2] was > 1000 nM throughout.

Take `C[C@@H]1CN(c2ncc(Cl)c(N[C@H](C)c3ccc(Cl)cc3Cl)n2)CCN1C(=O)N1CCNCC1` [Example 1.036]: the IC50 at CCR4 [1] and at CCR4 [2] was > 1000 nM in each case.

Regarding `C[C@@H](Nc1nc(N2CCN(C(=O)[C@H]3CCC(=O)N3)CC2)ncc1Cl)c1ccc(Cl)cc1Cl` [Example 1.148], the IC50 on CCR4 [1] and at CCR4 [2] was < 100 nM each time.

Turning to `C[C@@H](Nc1nc(N2CCN(C(=O)[C@H]3CCCN3)CC2)ncc1C(F)(F)F)c1ccc(Cl)cc1Cl` [Example 1.007], the IC50 at CCR4 [1] and on CCR4 [2] was < 100 nM each time.

In the case of `C[C@@H](Nc1nc(N2CC[C@H](NC(=O)[C@H]3CCCN3)[C@H](O)C2)ncc1Cl)c1ccc(Cl)cc1Cl` [Example 1.014], the half-maximal inhibitory concentration (IC50) at CCR4 [1] and on CCR4 [2] was < 100 nM throughout.

Turning to `C[C@@H](Nc1nc(N2CCN(C(=O)[C@H]3CCC(=O)N3)CC2)ncc1Cl)c1cccc(Cl)c1` [Example 1.075], the half-maximal inhibitory concentration (IC50) on CCR4 [1] was 100 to 1000 nM; at CCR4 [2] it was > 1000 nM.

Turning to `C[C@@H](Nc1nc(N2CCN(C(=O)[C@H]3CCN3)CC2)ncc1Cl)c1ccc(Cl)cc1Cl` [Example 1.033], the 50% inhibitory concentration (IC50) at CCR4 [1] and at CCR4 [2] was < 100 nM throughout.

Take `C[C@@H](Nc1nc(N2CC[C@H](NC(=O)[C@H]3CCCN3)C2)ncc1Cl)c1ccc(Cl)cc1Cl` [Example 1.029]: the half-inhibitory concentration (IC50) on CCR4 [1] and at CCR4 [2] was < 100 nM each time.

Turning to `C[C@@H](Nc1nc(N2CCC(N(C)C(=O)[C@H]3CCCN3)CC2)ncc1Cl)c1ccc(Cl)cc1Cl` [Example 1.008], the IC50 on CCR4 [1] and on CCR4 [2] was < 100 nM throughout.

Regarding `C[C@@H](Nc1nc(N2CCC(NC(=O)C3CCN(C)C3)CC2)ncc1Cl)c1ccc(Cl)cc1Cl` (some centres unmarked) [Example 1.009], the half-inhibitory concentration (IC50) at CCR4 [1] and at CCR4 [2] was < 100 nM throughout.

Regarding `Cc1nc(N2CCN(C(=O)[C@H]3CCC(=O)N3)CC2)nc(N[C@H](C)c2ccc(Cl)cc2Cl)c1Cl` [Example 1.113], the IC50 on CCR4 [1] and at CCR4 [2] was < 100 nM in each case.
